Measurements reported in patent EP4806898A1, “HETEROARYL DERIVATIVE COMPOUND AND USE THEREOF” (Voronoi Inc., priority 2023, dated 2025).
Where two headings read alike, the source gives them in different places.

Tests used:
[1] = system: UWB1.289 cells; assay: Cell proliferation inhibitory activity in BRCA1/2-mutant or HRD-positive cells (Cell Titer-Glo); type: cell-based; conditions: read-out: GI50 UWB1.289 BRCA1 mut
In short: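 UWB1.289 cells (1,000/well) in 50% MEBM/50% RPMI1640 exposed to […], final 1.5 nM to 10 µM, for 144 h at 37 °C. Viable cells measured by CellTiter-Glo luminescence; GI50 calculated.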

[2] = biological target: T1, recombinant USP1 protein (Homo sapiens, UniProt O94782, DEL125-138/DEL229-408/DEL608-737); assay: Binding affinity to recombinant USP1 protein by differential scanning fluorimetry; conditions: read-out: ΔTm (°C)
T1 sequence (O94782 with tags, fused parts or gaps DEL125-138/DEL229-408/DEL608-737): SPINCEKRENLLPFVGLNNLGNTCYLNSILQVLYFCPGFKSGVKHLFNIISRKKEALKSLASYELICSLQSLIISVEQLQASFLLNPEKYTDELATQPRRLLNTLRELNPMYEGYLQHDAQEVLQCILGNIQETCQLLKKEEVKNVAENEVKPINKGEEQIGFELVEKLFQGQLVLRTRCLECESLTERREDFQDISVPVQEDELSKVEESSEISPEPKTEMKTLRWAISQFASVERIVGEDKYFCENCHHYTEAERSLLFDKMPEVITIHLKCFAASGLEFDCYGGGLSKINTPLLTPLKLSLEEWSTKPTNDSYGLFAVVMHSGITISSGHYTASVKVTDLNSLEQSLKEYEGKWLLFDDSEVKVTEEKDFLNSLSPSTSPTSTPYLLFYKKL
In short: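 USP1 (Δ1-66, Δ125-138, Δ229-408, Δ608-737) at 0.03 mg/mL with dye in 50 mM Tris-HCl pH 8.0, 150 mM NaCl, 2% glycerol, 1 mM DTT; compounds at 100 µM final. Tm read on real-time PCR instrument; ΔTm = Tm with compound minus Tm with DMSO.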

[3] = UWB1289, UWB1.289 cells, 144 hours after compound treatment, Cell Titer-Glo, 1.5 nM to 10 µM
[4] = compound 100 µM, 0.03 mg/mL USP1 (Δ1-66, Δ125-138, Δ229-408, Δ608-737), Tm with compound minus Tm with DMSO

Structure (SMILES) | GI50 [1, 3] [nM] | ΔTm at 100 µM [2, 4] [°C] | GI50 ([1]; UWB1289, 144 h) [nM] | ΔTm at 100 µM [2] [°C]
COc1ncnc(C2CC2)c1-c1ncc2cc(C(=O)N[C@@H]3CCC[C@H]3N(C)C)n(Cc3ccc(-c4nc(C(F)(F)F)cn4C(C)C)cc3)c2n1 [Example 115, 2-(4-cyclopropyl-6-methoxypyrimidin-5-yl)-N-((1R,2R)-2-(dimethylamino)cyclopentyl)-7-(4-(1-isopropyl-4-(trifluoromethyl)-1H-imidazol-2-yl)benzyl)-7H-pyrrolo[2,3-d]pyrimidine-6-carboxamide] | < 100 | > 5 |  | 
COc1ncnc(C2CC2)c1-c1ncc2cc(C(=O)NC3(C)CC(F)(F)C3)n(Cc3ccc(-c4nc(C(F)(F)F)cn4C(C)C)cc3)c2n1 [Example 116, 2-(4-cyclopropyl-6-methoxypyrimidin-5-yl)-N-(3,3-difluoro-1-methylcyclobutyl)-7-(4-(1-isopropyl-4-(trifluoromethyl)-1H-imidazol-2-yl)benzyl)-7H-pyrrolo[2,3-d]pyrimidine-6-carboxamide] | < 100 | > 5 |  | 
COc1ncnc(C2CC2)c1-c1ncc2cc(C(=O)N3CC[C@H](O)C3)n(Cc3ccc(-c4nc(C(F)(F)F)cn4C(C)C)cc3)c2n1 [Example 117, (S)-(2-(4-cyclopropyl-6-methoxypyrimidin-5-yl)-7-(4-(1-isopropyl-4-(trifluoromethyl)-1H-imidazol-2-yl)benzyl)-7H-pyrrolo[2,3-d]pyrimidin-6-yl) (3-hydroxypyrrolidin-1-yl)methanone] | < 100 | > 5 |  | 
COc1ncnc(C2CC2)c1-c1ncc2cc(C(=O)NCC(C)(C)N)n(Cc3ccc(-c4nc(C(F)(F)F)cn4C(C)C)cc3)c2n1 [Example 118, N-(2-amino-2-methylpropyl)-2-(4-cyclopropyl-6-methoxypyrimidin-5-yl)-7-(4-(1-isopropyl-4-(trifluoromethyl)-1H-imidazol-2-yl)benzyl)-7H-pyrrolo[2,3-d]pyrimidine-6-carboxamide] | < 100 | > 5 |  | 
CNC(=O)c1cc2cnc(-c3c(OC(C)C)ncnc3C3CC3)nc2n1Cc1ccc(-c2nc(C(F)(F)F)cn2C(C)C)cc1 [Example 119, 2-(4-cyclopropyl-6-isopropoxypyrimidin-5-yl)-7-(4-(1-isopropyl-4-(trifluoromethyl)-1H-imidazol-2-yl)benzyl)-N-methyl-7H-pyrrolo[2,3-d]pyrimidine-6-carboxamide] | < 100 | > 5 |  | 
COc1ncnc(C2CC2)c1-c1ncc2cc(C(=O)NC3CCN(C4CC4)CC3)n(Cc3ccc(-c4nc(C(F)(F)F)cn4C(C)C)cc3)c2n1 [Example 121, 2-(4-cyclopropyl-6-methoxypyrimidin-5-yl)-N-(1-cyclopropylpiperidin-4-yl)-7-(4-(1-isopropyl-4-(trifluoromethyl)-1H-imidazol-2-yl)benzyl)-7H-pyrrolo[2,3-d]pyrimidine-6-carboxamide] | < 100 | > 5 |  | 
COc1ncnc(C2CC2)c1-c1ncc2cc(C(=O)N[C@H]3C[C@H](OC)C3)n(Cc3ccc(-c4nc(C(F)(F)F)cn4C(C)C)cc3)c2n1 [Example 122, 2-(4-cyclopropyl-6-methoxypyrimidin-5-yl)-7-(4-(1-isopropyl-4-(trifluoromethyl)-1H-imidazol-2-yl)benzyl)-N-((1r,3r)-3-methoxycyclobutyl)-7H-pyrrolo[2,3-d]pyrimidine-6-carboxamide] | 100 to 500 | > 5 |  | 
COc1ncnc(C2CC2)c1-c1ncc2cc(C(=O)N3CC[C@@H](OC)C3)n(Cc3ccc(-c4nc(C(F)(F)F)cn4C(C)C)cc3)c2n1 [Example 123, (R) - (2-(4-cyclopropyl-6-methoxypyrimid in-5-yl)-7-(4-(1-isopropyl-4-(trifluoromethyl)-1H-imidazol-2-yl)benzyl)-7H-pyrrolo[2,3-d]pyrimidin-6-yl) (3-methoxypyrrolidin-1-yl)methanone] |  |  | 100 to 500 | > 5
